Data as given in PubChem BioAssay AID1745844 (Carcinogenic Potency Database (CPDB), 2022).
Values joined by “and” are separate entries in the source; they are usually repeats but may differ in a detail not shown here. Identical values can stand only once. Active and inactive are the calls of the source. No rule for the calls is given here.

Test system: rodent lifetime carcinogenesis bioassay, tumor incidence TD50
Assay: carcinogenic potency in animals, long-term in vivo studies, CPDB compilation (AID 1745844)

SMILES: COC1COC(OC2COC(OC3COC(OC4COC(OC)C(OS(=O)(=O)O)C4OS(=O)(=O)O)C(OC4OC(C(=O)O)C(OC)C(OS(=O)(=O)O)C4OS(=O)(=O)O)C3OS(=O)(=O)O)C(OS(=O)(=O)O)C2OS(=O)(=O)O)C(OS(=O)(=O)O)C1OS(=O)(=O)O (stereo not drawn)
- TD50 (mouse, strain B6C3F1, females, by gavage, site: all sites, lesion: hemangioma + hemangiosarcoma, dosed 104 weeks, study length 104 weeks): 1700 mg/kg/day
- TD50 (mouse, strain B6C3F1, females, by gavage, site: all sites, lesion: hemangioma, dosed 104 weeks, study length 104 weeks): 4340 mg/kg/day
- TD50 (mouse, strain B6C3F1, females, by gavage, site: all sites, lesion: malignant lymphoma, dosed 104 weeks, study length 104 weeks): 927 mg/kg/day
- TD50 (mouse, strain B6C3F1, females, by gavage, site: any site (literature study), lesion: several types, types named in the paper, dosed 104 weeks, study length 104 weeks): 660 mg/kg/day
- TD50 (mouse, strain B6C3F1, females, by gavage, site: liver, lesion: hemangiosarcoma + hepatocellular adenoma + hepatocellular carcinoma, dosed 104 weeks, study length 104 weeks): 663 mg/kg/day
- TD50 (mouse, strain B6C3F1, females, by gavage, site: liver, lesion: hemangiosarcoma, dosed 104 weeks, study length 104 weeks): 3160 mg/kg/day
- TD50 (mouse, strain B6C3F1, females, by gavage, site: liver, lesion: hepatocellular adenoma + hepatoblastoma + hepatocellular carcinoma, dosed 104 weeks, study length 104 weeks): 867 mg/kg/day
- TD50 (mouse, strain B6C3F1, females, by gavage, site: liver, lesion: hepatocellular adenoma + hepatocellular carcinoma, dosed 104 weeks, study length 104 weeks): 867 mg/kg/day
- TD50 (mouse, strain B6C3F1, females, by gavage, site: liver, lesion: hepatocellular adenoma, dosed 104 weeks, study length 104 weeks): 991 mg/kg/day
- TD50 (mouse, strain B6C3F1, males, by gavage, site: all sites, lesion: hemangiosarcoma, dosed 104 weeks, study length 104 weeks): 1340 mg/kg/day
- TD50 (mouse, strain B6C3F1, males, by gavage, site: any site (literature study), lesion: several types, types named in the paper, dosed 104 weeks, study length 104 weeks): 297 mg/kg/day
- TD50 (mouse, strain B6C3F1, males, by gavage, site: liver, lesion: hemangiosarcoma, dosed 104 weeks, study length 104 weeks): 1090 mg/kg/day
- TD50 (mouse, strain B6C3F1, males, by gavage, site: liver, lesion: hepatocellular adenoma + hepatoblastoma + hepatocellular carcinoma, dosed 104 weeks, study length 104 weeks): 538 mg/kg/day
- TD50 (mouse, strain B6C3F1, males, by gavage, site: liver, lesion: hepatocellular adenoma + hepatocellular carcinoma, dosed 104 weeks, study length 104 weeks): 499 mg/kg/day
- TD50 (mouse, strain B6C3F1, males, by gavage, site: lung, lesion: alveolar/bronchiolar adenoma + alveolar/bronchiolar carcinoma, dosed 104 weeks, study length 104 weeks): 8000 mg/kg/day
- TD50 (rat, strain Fischer 344, females, by gavage, site: any site (literature study), lesion: several types, types named in the paper, dosed 104 weeks, study length 104 weeks): 1980 mg/kg/day (inactive)
- carcinogen call (rat, strain Fischer 344, males, by gavage, site: any site (literature study), lesion: several types, types named in the paper, dosed 104 weeks, study length 104 weeks): negative (inactive)

SMILES: O=[N+]([O-])c1ccc(O)c([N+](=O)[O-])c1
- carcinogen call (mouse, strain DBA, females, in feed, site: mammary gland, lesion: carcinoma, dosed 90 weeks, study length 90 weeks): negative (inactive)

SMILES: O=NN1CCCCCCCCCCCC1
- TD50 (rat, strain NZR/Gd, females, by gavage, site: liver, lesion: hepatocellular tumor, dosed 52 weeks, study length 171 weeks): 10.9 mg/kg/day
- TD50 (rat, strain NZR/Gd, females, by gavage, site: lung, lesion: several types, types named in the paper, dosed 52 weeks, study length 171 weeks): 7.96 mg/kg/day
- TD50 (rat, strain NZR/Gd, males, by gavage, site: heart, lesion: one or several types, types not named, dosed 52 weeks, study length 150 weeks): 2.15 mg/kg/day
- TD50 (rat, strain NZR/Gd, males, by gavage, site: liver, lesion: hepatocellular tumor, dosed 52 weeks, study length 150 weeks): 16.8 mg/kg/day
- TD50 (rat, strain NZR/Gd, males, by gavage, site: lung, lesion: several types, types named in the paper, dosed 52 weeks, study length 150 weeks): 14.6 mg/kg/day

SMILES: ClC1=C(Cl)[C@]2(Cl)[C@@H]3[C@H]4C[C@H]([C@@H]5O[C@H]45)[C@@H]3[C@@]1(Cl)C2(Cl)Cl
- TD50 (mouse, strain B6C3F1, females, in feed, site: any site (literature study), lesion: several types, types named in the paper, dosed 80 weeks, study length 90 weeks): 6.88 mg/kg/day (inactive)
- TD50 (mouse, strain B6C3F1, females, in feed, site: lung, lesion: alveolar/bronchiolar adenoma + alveolar/bronchiolar carcinoma, dosed 80 weeks, study length 90 weeks): 67 mg/kg/day
- TD50 (mouse, strain B6C3F1, males, in feed, site: any site (literature study), lesion: several types, types named in the paper, dosed 80 weeks, study length 90 weeks): 0.546 mg/kg/day (inactive)
- TD50 (mouse, strain B6C3F1, males, in feed, site: liver, lesion: hepatocellular adenoma + hepatocellular carcinoma + neoplastic nodule, dosed 80 weeks, study length 90 weeks): 0.854 mg/kg/day
- TD50 (mouse, strain B6C3F1, males, in feed, site: lung, lesion: alveolar/bronchiolar adenoma + alveolar/bronchiolar carcinoma, dosed 80 weeks, study length 90 weeks): 1.27 mg/kg/day
- TD50 (rat, strain Osborne-Mendel, females, in feed, site: adrenal gland, lesion: adenoma, NOS + carcinoma, NOS, dosed 80 weeks, study length 109 weeks): 0.227 mg/kg/day (inactive)
- carcinogen call (rat, strain Osborne-Mendel, females, in feed, site: any site (literature study), lesion: several types, types named in the paper, dosed 80 weeks, study length 110 weeks): negative (inactive)
- carcinogen call (rat, strain Osborne-Mendel, females, in feed, site: any site (literature study), lesion: several types, types named in the paper, dosed 117 weeks, study length 121 weeks): negative (inactive)
- TD50 (rat, strain Osborne-Mendel, females, in feed, site: liver, lesion: hemangioma, dosed 117 weeks, study length 121 weeks): 42.3 mg/kg/day (inactive)
- TD50 (rat, strain Osborne-Mendel, females, in feed, site: liver, lesion: hepatocellular adenoma + hepatocellular carcinoma + neoplastic nodule, dosed 80 weeks, study length 110 weeks): 7.44 mg/kg/day
- TD50 (rat, strain Osborne-Mendel, females, in feed, site: pituitary gland, lesion: adenoma, NOS, dosed 80 weeks, study length 109 weeks): 0.579 mg/kg/day
- TD50 (rat, strain Osborne-Mendel, males, in feed, site: adrenal gland, lesion: adenoma, NOS + carcinoma, NOS, dosed 80 weeks, study length 110 weeks): 0.553 mg/kg/day (inactive)
- TD50 (rat, strain Osborne-Mendel, males, in feed, site: adrenal gland, lesion: adenoma, NOS, dosed 80 weeks, study length 110 weeks): 0.66 mg/kg/day
- TD50 (rat, strain Osborne-Mendel, males, in feed, site: all sites, lesion: hemangioma, dosed 80 weeks, study length 110 weeks): 0.661 mg/kg/day
- TD50 (rat, strain Osborne-Mendel, males, in feed, site: any site (literature study), lesion: several types, types named in the paper, dosed 80 weeks, study length 110 weeks): 0.776 mg/kg/day (inactive)
- carcinogen call (rat, strain Osborne-Mendel, males, in feed, site: any site (literature study), lesion: several types, types named in the paper, dosed 121 weeks, study length 126 weeks): negative (inactive)
- carcinogen call (rat, strain Osborne-Mendel, males, in feed, site: liver, lesion: hemangioma, dosed 121 weeks, study length 126 weeks): negative (inactive)
- TD50 (rat, strain Osborne-Mendel, males, in feed, site: pancreatic islets, lesion: islet-cell carcinoma, dosed 80 weeks, study length 110 weeks): 1.75 mg/kg/day

SMILES: Cc1cc(N)ccc1N
- TD50 (mouse, strain B6C3F1, females, in feed, site: any site (literature study), lesion: several types, types named in the paper, dosed 78 weeks, study length 94 weeks): 33200 mg/kg/day
- TD50 (mouse, strain B6C3F1, females, in feed, site: liver, lesion: hepatocellular adenoma + hepatocellular carcinoma + neoplastic nodule, dosed 78 weeks, study length 94 weeks): 1960 mg/kg/day
- TD50 (mouse, strain B6C3F1, females, in feed, site: lung, lesion: alveolar/bronchiolar adenoma + alveolar/bronchiolar carcinoma, dosed 78 weeks, study length 94 weeks): 364 mg/kg/day (inactive) and 364 mg/kg/day
- TD50 (mouse, strain B6C3F1, males, in feed, site: any site (literature study), lesion: several types, types named in the paper, dosed 78 weeks, study length 94 weeks): 272 mg/kg/day (inactive)
- TD50 (mouse, strain B6C3F1, males, in feed, site: liver, lesion: hepatocellular adenoma + hepatocellular carcinoma + neoplastic nodule, dosed 78 weeks, study length 94 weeks): 288 mg/kg/day
- TD50 (mouse, strain B6C3F1, males, in feed, site: lung, lesion: alveolar/bronchiolar adenoma + alveolar/bronchiolar carcinoma, dosed 78 weeks, study length 94 weeks): 3560 mg/kg/day
- carcinogen call (rat, strain Fischer 344, females, in feed, site: any site (literature study), lesion: several types, types named in the paper, dosed 78 weeks, study length 107 weeks): negative (inactive)
- carcinogen call (rat, strain Fischer 344, males, in feed, site: any site (literature study), lesion: several types, types named in the paper, dosed 78 weeks, study length 106 weeks): negative (inactive)
- TD50 (rat, strain Fischer 344, males, in feed, site: liver, lesion: hepatocellular adenoma + hepatocellular carcinoma + neoplastic nodule, dosed 78 weeks, study length 106 weeks): 233 mg/kg/day

SMILES: CCOc1ccc(NC(C)=O)cc1N
- TD50 (mouse, strain B6C3F1, females, in feed, site: any site (literature study), lesion: several types, types named in the paper, dosed 78 weeks, study length 93 weeks): 569 mg/kg/day
- TD50 (mouse, strain B6C3F1, females, in feed, site: lung, lesion: alveolar/bronchiolar adenoma + alveolar/bronchiolar carcinoma, dosed 78 weeks, study length 93 weeks): 8630 mg/kg/day
- TD50 (mouse, strain B6C3F1, females, in feed, site: pituitary gland, lesion: adenoma, NOS + carcinoma, NOS + chromophobe adenoma, dosed 78 weeks, study length 93 weeks): 1050 mg/kg/day (inactive)
- TD50 (mouse, strain B6C3F1, males, in feed, site: liver, lesion: hepatocellular adenoma + hepatocellular carcinoma + neoplastic nodule, dosed 78 weeks, study length 93 weeks): 8990 mg/kg/day
- TD50 (mouse, strain B6C3F1, males, in feed, site: thyroid gland, lesion: adenocarcinoma, NOS + adenoma, NOS + follicular-cell adenoma + follicular-cell carcinoma, dosed 78 weeks, study length 93 weeks): 2070 mg/kg/day
- TD50 (mouse, strain B6C3F1, males, in feed, site: thyroid gland, lesion: adenocarcinoma, NOS + follicular-cell carcinoma, dosed 78 weeks, study length 93 weeks): 4020 mg/kg/day
- TD50 (mouse, strain B6C3F1, males, in feed, site: thyroid gland, lesion: follicular-cell carcinoma, dosed 78 weeks, study length 93 weeks): 3770 mg/kg/day
- TD50 (rat, strain Fischer 344, females, in feed, site: adrenal gland, lesion: cortical adenoma + cortical carcinoma, dosed 78 weeks, study length 106 weeks): 415 mg/kg/day (inactive)
- TD50 (rat, strain Fischer 344, females, in feed, site: liver, lesion: hepatocellular adenoma + hepatocellular carcinoma + neoplastic nodule, dosed 78 weeks, study length 106 weeks): 717 mg/kg/day
- TD50 (rat, strain Fischer 344, males, in feed, site: thyroid gland, lesion: c-cell carcinoma, dosed 78 weeks, study length 106 weeks): 610 mg/kg/day (inactive)

SMILES: NC(=O)Cc1cccc2ccccc12
- TD50 (mouse, strain B6AKF1, females, oral dosing, site: any site (literature study), lesion: several types, types named in the paper, dosed 76 weeks, study length 76 weeks): 956 mg/kg/day (inactive)
- carcinogen call (mouse, strain B6AKF1, females, oral dosing, site: liver, lesion: hepatoma, dosed 76 weeks, study length 76 weeks): negative (inactive)
- carcinogen call (mouse, strain B6AKF1, females, oral dosing, site: lung, lesion: adenoma, dosed 76 weeks, study length 76 weeks): negative (inactive)
- carcinogen call (mouse, strain B6AKF1, males, oral dosing, site: any site (literature study), lesion: several types, types named in the paper, dosed 76 weeks, study length 76 weeks): negative (inactive)
- carcinogen call (mouse, strain B6AKF1, males, oral dosing, site: liver, lesion: hepatoma, dosed 76 weeks, study length 76 weeks): negative (inactive)
- carcinogen call (mouse, strain B6AKF1, males, oral dosing, site: lung, lesion: adenoma, dosed 76 weeks, study length 76 weeks): negative (inactive)
- TD50 (mouse, strain B6C3F1, females, oral dosing, site: any site (literature study), lesion: several types, types named in the paper, dosed 76 weeks, study length 76 weeks): 213 mg/kg/day (inactive)
- TD50 (mouse, strain B6C3F1, females, oral dosing, site: liver, lesion: hepatoma, dosed 76 weeks, study length 76 weeks): 956 mg/kg/day (inactive)
- TD50 (mouse, strain B6C3F1, females, oral dosing, site: lung, lesion: adenoma, dosed 76 weeks, study length 76 weeks): 461 mg/kg/day (inactive)
- TD50 (mouse, strain B6C3F1, males, oral dosing, site: any site (literature study), lesion: several types, types named in the paper, dosed 76 weeks, study length 76 weeks): 141 mg/kg/day (inactive)
- TD50 (mouse, strain B6C3F1, males, oral dosing, site: liver, lesion: hepatoma, dosed 76 weeks, study length 76 weeks): 316 mg/kg/day (inactive)
- TD50 (mouse, strain B6C3F1, males, oral dosing, site: lung, lesion: adenoma, dosed 76 weeks, study length 76 weeks): 1010 mg/kg/day (inactive)

SMILES: COc1cc(OC)c2c3c(c(=O)oc2c1)C(=O)CC3
- carcinogen call (rat, strain Fischer, males, by gavage, site: liver, lesion: one or several types, types not named, dosed 52 weeks, study length 87 weeks): negative (inactive)
